According to patent publication US20080103201A1, “Novel alpha-Glucosidase inhibitor from Tabernaemontana dichotoma” (priority 2006, published 2008):

Key:
[1] = molecular target: α-glucosidase (E.C.3.2.1.20); test: α-Glucosidase enzyme inhibition assay (PNP-G substrate, spectrophotometric); type: biochemical
Experimental: α-Glucosidase (E.C.3.2.1.20) enzyme inhibition assay was performed according to the slightly modified method of Matsui et al. α-glucosidase (E.C.3.2.1.20) from Saccharomyces species, purchased from Wako Pure Chemical Industries Ltd. (Wako 076-02841). The enzyme inhibition was measured spectrophotometrically at pH 6.9 and at 37° C. using 0.7 mM p-nitrophenyl-α-D-glucopyranoside (PNP-G) as a substrate and 500 m units/mL enzyme, in 50 mM sodium phosphate buffer containing 100 mM NaCl. […] The increment in absorption at 400 nm, due to the hydrolysis of PNP-G by α-glucosidase, was monitored continuously on microplate spectrophotometer (Spectra Max Molecular Devices, USA).) [T. Matsui, C. Yoshimoto, K. Osajima, T. Oki, and Y. Osajima. Biosci. Biotech. Biochem., 1996, 60, 2019].

[2] = Post-prandial blood glucose concentration in rats; type: in vivo

CC(=O)OC1CCC2(C)C(CCC3(C)C2CC=C2C4CC(C)(C)CCC4(C)CCC23C)C1(C)C (stereo not drawn) [β-Amyrin acetate, 12-Oleanen-3-yl acetate]
IC50 ([1]; pH 6.9, 37° C., 0.7 mM PNP-G substrate, 500 m units/mL enzyme): 22.27 ± 0.112 µM | potency compared with Acarbose (times) ([1]; α-glucosidase inhibition, relative to acarbose): approximately 35 times | post-prandial blood glucose concentration [2]: reduced
